Measured values published in patent publication US20110166121A1 (LG LIFE SCIENCES LTD., priority 2008, published 2011).

system: Human platelet aggregation caused by ADP; test: Inhibition of ADP-induced platelet aggregation (Mimic-human PRP); format: cell-based; settings: 20 μM ADP, human platelet concentrate diluted with PPP, absorption at 595 nm
Summary of the method: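 Ki came from non-linear sigmoidal fits of inhibition, measured as the 3-min rise in absorbance at 595 nm after 20 μM ADP, relative to 0/20 μM ADP controls. Platelets (3–4×10^8/mL in PPP-diluted human PRP) were exposed to 0.01–30 μM compound for 20 min at room temperature beforehand.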

Q: With `CCCc1cc2c(N3CCn4c(nnc4C(F)(F)F)C3)nc(OC3CN(C(=O)C(C)C)C3)nc2s1` [Example 8-27, 2-Methyl-1-{3-[6-propyl-4-(3-trifluoromethyl-5,6-dihydro-8H-[1,2,4]triazolo[4,3-a]pyrazin-7-yl)-thieno[2,3-d]pyrimidin-2-yloxy]-azetidin-1-yl}-propan-1-one] as the compound, how does the Ki read?
A: 260 nM

Q: For `CCCc1cc2c(N3CCn4c(nnc4C(F)(F)F)C3)nc(OC[C@H]3CCCN3C(C)=O)nc2s1` [Example 8-28, -{(R)-2-[6-Propyl-4-(3-trifluoromethyl-5,6-dihydro-8H-[1,2,4]triazolo[4,3-a]pyrazin-7-yl)-thieno[2,3-d]pyrimidin-2-yloxymethyl]-pyrrolidin-1-yl}-ethanone], which Ki is on record?
A: 45 nM

Q: How did the Ki turn out when `CCCC(=O)N1CCC[C@@H]1COc1nc(N2CCn3c(nnc3C(F)(F)F)C2)c2cc(CCC)sc2n1` [Example 8-29, 1-{(R)-2-[6-Propyl-4-(3-trifluoromethyl-5,6-dihydro-8H-[1,2,4]triazolo[4,3-a]pyrazin-7-yl)-thieno[2,3-d]pyrimidin-2-yloxymethyl]-pyrrolidin-1-yl}-butan-1-one] was run?
A: 170 nM

Q: `CCCc1cc2c(N3CCn4c(nnc4C(F)(F)F)C3)nc(OC[C@H]3CCCN3C(=O)C(C)C)nc2s1` [Example 8-30, 2-Methyl-1-{(R)-2-[6-propyl-4-(3-trifluoromethyl-5,6-dihydro-8H-[1,2,4]triazolo[4,3-a]pyrazin-7-yl)-thieno[2,3-d]pyrimidin-2-yloxymethyl]-pyrrolidin-1-yl}-propan-1-one] was tested. Which Ki did it give?
A: 140 nM

Q: Which Ki does the source give for `CCCc1cc2c(N3CCn4c(nnc4C(F)(F)F)C3)nc(OC[C@@H]3CCCN3C(C)=O)nc2s1` [Example 8-31, 1-{(S)-2-[6-Propyl-4-(3-trifluoromethyl-5,6-dihydro-8H-[1,2,4]triazolo[4,3-a]pyrazin-7-yl)-thieno[2,3-d]pyrimidin-2-yloxymethyl]-pyrrolidin-1-yl}-ethanone] here?
A: 19 nM

Q: With `CCCC(=O)N1CCC[C@H]1COc1nc(N2CCn3c(nnc3C(F)(F)F)C2)c2cc(CCC)sc2n1` [Example 8-32, 1-{(S)-2-[6-Propyl-4-(3-trifluoromethyl-5,6-dihydro-8H-[1,2,4]triazolo[4,3-a]pyrazin-7-yl)-thieno[2,3-d]pyrimidin-2-yloxymethyl]-pyrrolidin-1-yl}-butan-1-one] as the compound, how does the Ki read?
A: 62 nM

Q: `CCCc1cc2c(N3CCn4c(nnc4C(F)(F)F)C3)nc(OC[C@@H]3CCCN3C(=O)C(C)C)nc2s1` [Example 8-33, 2-Methyl-1-{(S)-2-[6-propyl-4-(3-trifluoromethyl-5,6-dihydro-8H-[1,2,4]triazolo[4,3-a]pyrazin-7-yl)-thieno[2,3-d]pyrimidin-2-yloxymethyl]-pyrrolidin-1-yl}-propan-1-one] was tested. Which Ki did it give?
A: 43 nM

Q: `CCCc1cc2c(N3CCn4c(nnc4C(F)(F)F)C3)nc(OC[C@@H]3CCN(C(C)=O)C3)nc2s1` [Example 8-34, 1-{(R)-3-[6-Propyl-4-(3-trifluoromethyl-5,6-dihydro-8H-[1,2,4]triazolo[4,3-a]pyrazin-7-yl)-thieno[2,3-d]pyrimidin-2-yloxymethyl]-pyrrolidin-1-yl}-ethanone] was tested. Which Ki did it give?
A: 45 nM

Q: How did the Ki turn out when `CCCC(=O)N1CC[C@@H](COc2nc(N3CCn4c(nnc4C(F)(F)F)C3)c3cc(CCC)sc3n2)C1` [Example 8-35, 1-{(R)-3-[6-Propyl-4-(3-trifluoromethyl-5,6-dihydro-8H-[1,2,4]triazolo[4,3-a]pyrazin-7-yl)-thieno[2,3-d]pyrimidin-2-yloxymethyl]-pyrrolidin-1-yl}-butan-1-one] was run?
A: 49 nM

Q: How did the Ki turn out when `CCCc1cc2c(N3CCn4c(nnc4C(F)(F)F)C3)nc(OC[C@@H]3CCN(C(=O)C(C)C)C3)nc2s1` [Example 8-36, 2-Methyl-1-{(R)-3-[6-propyl-4-(3-trifluoromethyl-5,6-dihydro-8H-[1,2,4]triazolo[4,3-a]pyrazin-7-yl)-thieno[2,3-d]pyrimidin-2-yloxymethyl]-pyrrolidin-1-yl}-propan-1-one] was run?
A: 45 nM

Q: Which Ki does the source give for `CCCc1cc2c(N3CCn4c(nnc4C(F)(F)F)C3)nc(OC[C@H]3CCN(C(C)=O)C3)nc2s1` [Example 8-37, 1-{(S)-3-[6-Propyl-4-(3-trifluoromethyl-5,6-dihydro-8H-[1,2,4]triazolo[4,3-a]pyrazin-7-yl)-thieno[2,3-d]pyrimidin-2-yloxymethyl]-pyrrolidin-1-yl}-ethanone] here?
A: 43 nM

Q: With `CCCC(=O)N1CC[C@H](COc2nc(N3CCn4c(nnc4C(F)(F)F)C3)c3cc(CCC)sc3n2)C1` [Example 8-38, 1-{(S)-3-[6-Propyl-4-(3-trifluoromethyl-5,6-dihydro-8H-[1,2,4]triazolo[4,3-a]pyrazin-7-yl)-thieno[2,3-d]pyrimidin-2-yloxymethyl]-pyrrolidin-1-yl}-butan-1-one] as the compound, how does the Ki read?
A: 110 nM

Q: `CCCc1cc2c(N3CCn4c(nnc4C(F)(F)F)C3)nc(OC[C@H]3CCN(C(=O)C(C)C)C3)nc2s1` [Example 8-39, 2-Methyl-1-{(S)-3-[6-propyl-4-(3-trifluoromethyl-5,6-dihydro-8H-[1,2,4]triazolo[4,3-a]pyrazin-7-yl)-thieno[2,3-d]pyrimidin-2-yloxymethyl]-pyrrolidin-1-yl}-propan-1-one] was tested. Which Ki did it give?
A: 76 nM

Q: `CCCc1cc2c(N3CCn4c(nnc4C(F)(F)F)C3)nc(N3CC(O)C(NC(=O)OCC)C3)nc2s1` (centres unmarked) [Example 9-1, {4-Hydroxy-1-[6-propyl-4-(3-trifluoromethyl-5,6-dihydro-8H-[1,2,4]triazolo[4,3-a]pyrazin-7-yl)-thieno[2,3-d]pyrimidin-2-yl]-pyrrolidin-3-yl}-carbamic acid ethyl ester] was tested. Which Ki did it give?
A: 18 nM

Q: How did the Ki turn out when `CCCc1cc2c(N3CCn4c(nnc4C(F)(F)F)C3)nc(N3CC(O)C(NC(=O)OC)C3)nc2s1` (centres unmarked) [Example 9-2, {4-Hydroxy-1-[6-propyl-4-(3-trifluoromethyl-5,6-dihydro-8H-[1,2,4]triazolo[4,3-a]pyrazin-7-yl)-thieno[2,3-d]pyrimidin-2-yl]-pyrrolidin-3-yl}-carbamic acid methyl ester] was run?
A: 8 nM

Q: With `CCCc1cc2c(N3CCn4c(nnc4C(F)(F)F)C3)nc(N3CC[C@H](NC(=O)Oc4ccc(F)cc4)C3)nc2s1` [Example 9-4, {(S)-1-[6-Propyl-4-(3-trifluoromethyl-5,6-dihydro-8H-[1,2,4]triazolo[4,3-a]pyrazin-7-yl)-thieno[2,3-d]pyrimidin-2-yl]-pyrrolidin-3-yl}-carbamic acid 4-fluoro-phenyl ester] as the compound, how does the Ki read?
A: 280 nM

Q: `CCCc1cc2c(N3CCn4c(nnc4C(F)(F)F)C3)nc(N3CC[C@H](NC(=O)C4CCCC4)C3)nc2s1` [Example 9-5, Cyclopentanecarboxylic Acid {(S)-1-[6-propyl-4-(3-trifluoromethyl-5,6-dihydro-8H-[1,2,4]triazolo[4,3-a]pyrazin-7-yl)-thieno[2,3-d]pyrimidin-2-yl]-pyrrolidin-3-yl}-amide] was tested. Which Ki did it give?
A: 130 nM

Q: Which Ki does the source give for `CCCc1cc2c(N3CCn4c(nnc4C(F)(F)F)C3)nc(N3CC[C@H](NC(=O)C4CCCCC4)C3)nc2s1` [Example 9-9, Cyclohexanecarboxylic Acid {(S)-1-[6-propyl-4-(3-trifluoromethyl-5,6-dihydro-8H-[1,2,4]triazolo[4,3-a]pyrazin-7-yl)-thieno[2,3-d]pyrimidin-2-yl]-pyrrolidin-3-yl}-amide] here?
A: 300 nM

Q: For `CCCc1cc2c(N3CCn4c(nnc4C(F)(F)F)C3)nc(N3CC[C@H](NC(=O)c4ccc(Cl)s4)C3)nc2s1` [Example 9-11, 5-Chloro-thiophene-2-carboxylic Acid {(S)-1-[6-propyl-4-(3-trifluoromethyl-5,6-dihydro-8H-[1,2,4]triazolo[4,3-a]pyrazin-7-yl)-thieno[2,3-d]pyrimidin-2-yl]-pyrrolidin-3-yl}-amide], which Ki is on record?
A: 48 nM

Q: `CCCc1cc2c(N3CCn4c(nnc4C(F)(F)F)C3)nc(N3CC[C@H](NC(=O)c4cc(F)c(F)c(F)c4)C3)nc2s1` [Example 9-13, 3,4,5-Trifluoro-N-{(S)-1-[6-propyl-4-(3-trifluoromethyl-5,6-dihydro-8H-[1,2,4]triazolo[4,3-a]pyrazin-7-yl)-thieno[2,3-d]pyrimidin-2-yl]-pyrrolidin-3-yl}-benzamide] was tested. Which Ki did it give?
A: 300 nM

Q: For `CCCc1cc2c(N3CCn4c(nnc4C(F)(F)F)C3)nc(N3CC[C@H](NC(=O)NC4CCCC4)C3)nc2s1` [Example 9-15, 1-Cyclopentyl-3-{(S)-1-[6-propyl-4-(3-trifluoromethyl-5,6-dihydro-8H-[1,2,4]triazolo[4,3-a]pyrazin-7-yl)-thieno[2,3-d]pyrimidin-2-yl]-pyrrolidin-3-yl}-urea], which Ki is on record?
A: 42 nM

Q: Which Ki does the source give for `CCCc1cc2c(N3CCn4c(nnc4C(F)(F)F)C3)nc(N3CC[C@H](NC(=O)Nc4ccc(F)c(F)c4)C3)nc2s1` [Example 9-16, 1-(3,4-Difluoro-phenyl)-3-{(S)-1-[6-propyl-4-(3-trifluoromethyl-5,6-dihydro-8H-[1,2,4]triazolo[4,3-a]pyrazin-7-yl)-thieno[2,3-d]pyrimidin-2-yl]-pyrrolidin-3-yl}-urea] here?
A: 880 nM

Q: With `CCCc1cc2c(N3CCn4c(nnc4C(F)(F)F)C3)nc(N3CC[C@H](NC(=O)NS(=O)(=O)c4ccc(Cl)s4)C3)nc2s1` [Example 9-17] as the compound, how does the Ki read?
A: 19 nM

Q: How did the Ki turn out when `CCCc1cc2c(N3CCn4c(nnc4C(F)(F)F)C3)nc(N3CC[C@H](NC(=O)OC)C3)nc2s1` [Example 9-18, {(S)-1-[6-Propyl-4-(3-trifluoromethyl-5,6-dihydro-8H-[1,2,4]triazolo[4,3-a]pyrazin-7-yl)-thieno[2,3-d]pyrimidin-2-yl]-pyrrolidin-3-yl}-carbamic acid methyl ester] was run?
A: 10 nM

Q: With `CCCc1cc2c(N3CCn4c(nnc4C(F)(F)F)C3)nc(OCCNC(=O)OC)nc2s1` [Example 9-19, {2-[6-Propyl-4-(3-trifluoromethyl-5,6-dihydro-8H-[1,2,4]triazolo[4,3-a]pyrazin-7-yl)-thieno[2,3-d]pyrimidin-2-yloxy]-ethyl}-carbamic acid methyl ester] as the compound, how does the Ki read?
A: 3 nM

Q: With `CCCc1cc2c(N3CCn4c(nnc4C(F)(F)F)C3)nc(N3CC[C@@H](NC(=O)OC)C3)nc2s1` [Example 9-20, {(R)-1-[6-Propyl-4-(3-trifluoromethyl-5,6-dihydro-8H-[1,2,4]triazolo[4,3-a]pyrazin-7-yl)-thieno[2,3-d]pyrimidin-2-yl]-pyrrolidin-3-yl}-carbamic acid methyl ester] as the compound, how does the Ki read?
A: 6 nM
